Experimental data from US9051335B2, “Antipruritic agent for pruritus caused by multiple sclerosis” (TORAY INDUSTRIES, INC., priority 2005, dated 2015).

Tested on: MRL/lpr mice
Assay: Spontaneous scratching behavior in MRL/lpr mice (antipruritic effect)
Type: in vivo
Conditions: 20 weeks old female MRL/lpr mice, n=8
Procedure: [drawing 8] which is an κ opioid receptor agonist compound against pruritus was evaluated. The evaluation was carried out over 5 days dividedly. On Day 1, sterilized distilled water was orally administered 30 minutes before the beginning of the recording of the scratching behavior, and the number of scratching behavior when the mouse received a solvent was counted for 60 minutes. On Day 2, Compound 1 was orally administered to the same mouse 30 minutes before the beginning of the recording of the scratching behavior at a dose of 3 μg/kg, and the number of scratching behavior was counted for 60 minutes. On Days 3 to 5, the experiments were carried out in the same schedule as in Day 2 increasing the dose of Compound 1 such that the doses of Compound 1 on Day 3, Day 4 and Day 5 were 10 μg/kg, 30 μg/kg and 100 μg/kg, respectively (n=8). […] The number of scratching behavior was counted visually by replaying the video tape. The number of scratching behavior was counted such that the series of behavior from raising the hind leg for starting the scratching to putting down the hind leg were counted as one scratching behavior. […]

In the case of `CN(C(=O)/C=C/c1ccoc1)[C@@H]1CC[C@@]2(O)[C@H]3Cc4ccc(O)c5c4[C@@]2(CCN3CC2CC2)[C@H]1O5.Cl` [Compound 1, (−)-17-cyclopropylmethyl-4,5α-epoxy-3,14β-dihydroxy-6β-(N-methyl-trans-3-(3-furyl)acrylamido)morphinan hydrochloric acid salt], the “number of scratching behavior (60 minutes) versus control group at the time of administration of the solvent” value (30 μg/kg orally 30 minutes before recording, significant at statistical level of 5%) is reported as “decreased” and the “number of scratching behavior (60 minutes) versus control group at the time of administration of the solvent” value (100 μg/kg orally 30 minutes before recording, significant at statistical level of 1%) is reported as “decreased”.
